Data taken from the NIST ThermoML archive (doi:10.1016/j.fluid.2008.09.022).

Experiment: relative permittivity at various frequencies (dimensionless)
Conditions: Liquid, Frequency=0.01 MHz, Parallel plate capacitor

CC(F)(F)F [1,1,1-trifluoroethane]
Conditions | relative permittivity
218.12 K, 2000 kPa | 16.968
218.13 K, 3000 kPa | 17.006
218.16 K, 4000 kPa | 17.043
218.17 K, 5000 kPa | 17.076
218.18 K, 11000 kPa | 17.303
218.19 K, 6000 kPa | 17.111
218.21 K, 7000 kPa | 17.147
218.22 K, 10000 kPa | 17.264
218.23 K, 8000 kPa | 17.184
218.23 K, 9000 kPa | 17.224
218.24 K, 12000 kPa | 17.326
218.43 K, 13000 kPa | 17.338
218.45 K, 14000 kPa | 17.37
218.48 K, 15000 kPa | 17.403
223.96 K, 15000 kPa | 16.732
223.97 K, 13000 kPa | 16.66
223.97 K, 14000 kPa | 16.696
223.98 K, 12000 kPa | 16.622
224 K, 2000 kPa | 16.227
224 K, 3000 kPa | 16.267
224 K, 4000 kPa | 16.308
224 K, 5000 kPa | 16.349
224 K, 6000 kPa | 16.389
224 K, 7000 kPa | 16.432
224 K, 8000 kPa | 16.486
224 K, 9000 kPa | 16.506
224 K, 10000 kPa | 16.547
224 K, 11000 kPa | 16.582
232.97 K, 14000 kPa | 15.659
232.97 K, 15000 kPa | 15.697
232.98 K, 13000 kPa | 15.622
232.99 K, 9000 kPa | 15.465
232.99 K, 10000 kPa | 15.503
232.99 K, 12000 kPa | 15.581
233 K, 6000 kPa | 15.343
233 K, 7000 kPa | 15.387
233 K, 8000 kPa | 15.424
233 K, 11000 kPa | 15.543
233.01 K, 2000 kPa | 15.164
233.01 K, 3000 kPa | 15.207
233.01 K, 4000 kPa | 15.253
233.01 K, 5000 kPa | 15.298
243.15 K, 14000 kPa | 14.59
243.15 K, 15000 kPa | 14.629
243.16 K, 2000 kPa | 14.061
243.16 K, 3000 kPa | 14.108
243.16 K, 4000 kPa | 14.158
243.16 K, 5000 kPa | 14.203
243.16 K, 6000 kPa | 14.254
243.16 K, 7000 kPa | 14.298
243.16 K, 9000 kPa | 14.386
243.16 K, 10000 kPa | 14.43
243.16 K, 11000 kPa | 14.469
243.16 K, 12000 kPa | 14.51
243.16 K, 13000 kPa | 14.552
243.17 K, 8000 kPa | 14.34
253.13 K, 2000 kPa | 13.05
253.13 K, 6000 kPa | 13.264
253.13 K, 8000 kPa | 13.362
253.13 K, 9000 kPa | 13.407
253.13 K, 15000 kPa | 13.669
253.14 K, 3000 kPa | 13.106
253.14 K, 4000 kPa | 13.16
253.14 K, 5000 kPa | 13.209
253.14 K, 7000 kPa | 13.311
253.14 K, 10000 kPa | 13.455
253.14 K, 11000 kPa | 13.5
253.14 K, 12000 kPa | 13.543
253.14 K, 14000 kPa | 13.628
253.15 K, 13000 kPa | 13.585
263.02 K, 2000 kPa | 12.145
263.02 K, 12000 kPa | 12.685
263.02 K, 13000 kPa | 12.733
263.03 K, 3000 kPa | 12.203
263.03 K, 4000 kPa | 12.264
263.03 K, 6000 kPa | 12.379
263.03 K, 7000 kPa | 12.431
263.03 K, 8000 kPa | 12.485
263.03 K, 10000 kPa | 12.586
263.03 K, 11000 kPa | 12.636
263.03 K, 14000 kPa | 12.777
263.03 K, 15000 kPa | 12.821
263.04 K, 5000 kPa | 12.319
263.04 K, 9000 kPa | 12.536
274.42 K, 2000 kPa | 11.141
274.42 K, 3000 kPa | 11.215
274.42 K, 4000 kPa | 11.284
274.43 K, 5000 kPa | 11.346
274.43 K, 6000 kPa | 11.411
274.43 K, 7000 kPa | 11.471
274.43 K, 9000 kPa | 11.588
274.43 K, 10000 kPa | 11.644
274.43 K, 12000 kPa | 11.749
274.44 K, 8000 kPa | 11.528
274.44 K, 11000 kPa | 11.696
274.44 K, 13000 kPa | 11.798
274.44 K, 14000 kPa | 11.846
274.44 K, 15000 kPa | 11.895
283.16 K, 2000 kPa | 10.568
283.16 K, 3000 kPa | 10.641
283.16 K, 4000 kPa | 10.72
283.16 K, 5000 kPa | 10.796
283.17 K, 6000 kPa | 10.867
283.17 K, 7000 kPa | 10.936
283.17 K, 8000 kPa | 11.002
283.17 K, 9000 kPa | 11.066
283.18 K, 10000 kPa | 11.125
283.18 K, 11000 kPa | 11.183
283.18 K, 12000 kPa | 11.239
283.19 K, 13000 kPa | 11.293
283.19 K, 14000 kPa | 11.346
283.2 K, 15000 kPa | 11.397
294.1 K, 2000 kPa | 9.617
294.1 K, 3000 kPa | 9.7189
294.11 K, 4000 kPa | 9.8137
294.11 K, 5000 kPa | 9.9019
294.11 K, 6000 kPa | 9.9864
294.11 K, 7000 kPa | 10.066
294.11 K, 9000 kPa | 10.213
294.11 K, 10000 kPa | 10.281
294.11 K, 11000 kPa | 10.347
294.11 K, 15000 kPa | 10.585
294.12 K, 8000 kPa | 10.141
294.12 K, 12000 kPa | 10.409
294.12 K, 13000 kPa | 10.469
294.12 K, 14000 kPa | 10.526
